Source: patent publication US4721808A, “Process for purification of crude p-hydroxymethylbenzoic acid” (Amoco Corporation, priority 1987, dated 1988)

Assay: Solubilities of pHMBA and Impurities in Water
Format: physicochemical
Protocol: Since solubilities of p-hydroxymethylbenzoic acid and impurities in solvents depend upon the temperature at which the reaction takes place, increased product production is obtained by increased temperature and pressure.
Solubilities of pHMBA and Impurities in Water
Solubility (g/100 ml H2 O)

| Structure (SMILES) | Solubility at 20° C. | Solubility at 100° C. |
| --- | --- | --- |
| O=Cc1ccc(C(=O)O)cc1 [4-CBA, 4-carboxybenzaldehyde] | < 0.005 g/100 ml H2 O | ~ 0.25 g/100 ml H2 O |
| O=C(O)c1ccc(C(=O)O)cc1 [Terephthalic Acid, terephthalic acid] | < 0.005 g/100 ml H2 O | 0.03 g/100 ml H2 O |
| Cc1ccc(C(=O)O)cc1 [p-Toluic Acid, p-toluic acid] | 0.02 g/100 ml H2 O | 0.22 g/100 ml H2 O |
| O=C(O)c1ccc(CO)cc1 [pHMBA, p-hydroxymethylbenzoic acid] | ~ 0.5 g/100 ml H2 O | ~ 10.0 g/100 ml H2 O |
